According to US12162881B2, “Forms and compositions of inhibitors of JAK2” (Ajax Therapeutics, Inc., priority 2021, dated 2024):
Converted amounts (≈) assume the structure as drawn. Read-outs that look alike come from different tables or passages of the source. One block for each compound: values may come before it.

Columns and labels:
Assay type in all cases: physicochemical
[1] = Variable relative humidity XRPD (VRH-XRPD)
Protocol: XRPD patterns were collected with a PANalytical X'Pert PRO MPD diffractometer using an incident beam of Cu Kα radiation produced using a long, fine-focus source and a nickel filter. The diffractometer was configured using the symmetric Bragg-Brentano geometry. Data were collected and analyzed using Data Collector software v. 5.5. Prior to the analysis, a silicon specimen (NIST SRM 640f) was analyzed to verify the observed position of the Si 111 peak is consistent with the NIST-certified position. A specimen of the sample was packed in a nickel-coated copper well. Antiscatter slits (SS) were used to minimize the background generated by air. Soller slits for the incident and diffracted beams were used to minimize broadening from axial divergence. Diffraction patterns were collected using a scanning position-sensitive detector (X'Celerator) located 240 mm from the sample and Data Collector software v. 5.5.
An Anton Paar temperature-humidity chamber (THC) was used while collecting in-situ XRPD patterns as a function of humidity. The temperature of the specimen was changed with a Peltier thermoelectric device located directly under the specimen holder and monitored with a platinum-100 resistance sensor located in the specimen holder. The thermoelectric device was powered and controlled by an Anton Paar TCU 50 interfaced with Data Collector. The humidity was generated with an RH-200 manufactured by VTI Inc. and carried by a flow of nitrogen gas. The humidity was monitored by a HygroClip sensor manufactured by Rotronic located next to the specimen inside the THC.
VRH-XRPD analysis was conducted to help determine water activity boundary for the solid-state conversion between hydrated Form A and anhydrous Form B. This method was utilized due the observed high tendency of Compound 1 to form solvates, which precluded the use of solvent-mediated approach.
Overall, two VRH-XRPD experiments were conducted to qualitatively evaluate RH conditions leading to predominance of Form A over Form B and vice versa. The kinetic component was not assessed.
The first VRH-XRPD experiment was conducted with a goal of observing dehydration of hydrated Form A. An initial XRPD scan was, therefore, acquired on Form A equilibrated in-situ at ambient RH for 45 minutes, which at the time of the analysis was ˜30%. The XRPD pattern from this scan was consistent with Form A (FIG. 39, top).
XRPD patterns were collected throughout the course of the experiment, each with a 10 minute scan.
XRPD patterns were collected throughout the course of the experiment, each with a 10 minute scan. The XRPD patterns remained Form B until the RH reached approximately 60% RH, where Form A became the primary phase with some Form B remaining (FIG. 41, top two spectra). Further decrease of Form B was observed through the remainder of the 60% RH hold at which point the experiment ended (FIG. 41, bottom two spectra). Complete conversion to Form A from Form B was not observed under these conditions.

[2] = Dynamic vapor sorption (DVS) hygroscopicity; settings: for Hysteresis: in % (unit assumed)
Protocol: Automated vapor sorption (VS) data were collected on a Surface Measurement System DVS Intrinsic instrument. Samples were not dried prior to analysis. Sorption and desorption data were collected over a range from 5% to 95% RH at 10% RH increments under a nitrogen purge. The equilibrium criterion used for analysis was less than 0.0100% weight change in 5 minutes with a maximum equilibration time of 3 hours. Data were not corrected for the initial moisture content of the samples.

[3] = Kinetic solubility of Compound 1 Lot II, visually estimated at ambient temperature; settings: thermodynamic from solid
Protocol: Kinetic solubility of Compound 1 Lot II was visually estimated at ambient temperature (Table 22). Aliquots of various solvents were added to weighed samples of Compound 1 Lot II with agitation at ambient temperature until complete dissolution was achieved, as judged by visual observation. If dissolution occurred after the addition of the first aliquot, values were reported as “>”.

[4] = Target RH 5.0%, listed as Lot II
[5] = Target RH 15.0%, listed as Lot II
[6] = Target RH 25.0%, listed as Lot II
[7] = Target RH 35.0%, listed as Lot II
[8] = Target RH 45.0%, listed as Lot II
[9] = Target RH 55.0%, listed as Lot II
[10] = Target RH 65.0%, listed as Lot II
[11] = Target RH 75.0%, listed as Lot II
[12] = Target RH 85.0%, listed as Lot II
[13] = Target RH 95.0%, listed as Lot II
[14] = desorption from 95% to 5% RH, listed as Lot II
[15] = sorption from 5% to 95% RH, listed as Lot II

RH at which Form A became the primary phase ([1]; Experiment 2, RH incrementally increased from 15%, starting from Form B): approximately 60 % RH | RH below which the form likely exists ([1]; VRH-XRPD and DVS data combined): below 20 % RH | RH up to which the form may be kinetically stable ([1]; VRH-XRPD and DVS data combined): 40-60 % RH
SMILES: CC(=O)Nc1cc(Oc2cnc3nc(Nc4cc(C(F)(F)F)cn(C)c4=O)n(C)c3c2C#N)ccn1 [Compound 1 Form B, N-(4-((7-cyano-1-methyl-2-((1-methyl-2-oxo-5-(trifluoromethyl)-1,2-dihydropyridin-3-yl)amino)-1H-imidazo[4,5-b]pyridin-6-yl)oxy)pyridin-2-yl)acetamide]

Desorp Mass Change (%) [2, 4]: −0.019% | Sorp Mass Change (%) [2, 4]: 0.000% | Desorp Mass Change (%) [2, 5]: 0.332% | Sorp Mass Change (%) [2, 5]: 0.152% | Hysteresis [2, 5]: 0.180 | Desorp Mass Change (%) [2, 6]: 5.623% | Sorp Mass Change (%) [2, 6]: 0.250% | Hysteresis [2, 6]: 5.373 | Desorp Mass Change (%) [2, 7]: 6.984% | Sorp Mass Change (%) [2, 7]: 1.468% | Hysteresis [2, 7]: 5.516 | Desorp Mass Change (%) [2, 8]: 7.374% | Sorp Mass Change (%) [2, 8]: 4.861% | Hysteresis [2, 8]: 2.513 | Desorp Mass Change (%) [2, 9]: 7.842% | Sorp Mass Change (%) [2, 9]: 6.99% | Hysteresis [2, 9]: 0.848 | Desorp Mass Change (%) [2, 10]: 8.505% | Sorp Mass Change (%) [2, 10]: 7.697% | Hysteresis [2, 10]: 0.808 | Desorp Mass Change (%) [2, 11]: 8.972% | Sorp Mass Change (%) [2, 11]: 8.454% | Hysteresis [2, 11]: 0.518 | Desorp Mass Change (%) [2, 12]: 9.206% | Sorp Mass Change (%) [2, 12]: 9.042% | Hysteresis [2, 12]: 0.164 | Desorp Mass Change (%) [2, 13]: 9.408% | Sorp Mass Change (%) [2, 13]: 9.408% | DVS weight loss upon desorption [2, 14]: 9.4% | DVS weight loss upon desorption as water [2, 14]: approximately 2.9 mol/mol H2O | DVS weight gain [2, 15]: 9.4% | DVS weight gain as water uptake [2, 15]: approximately 2.9 mol/mol H2O | DVS weight gain ([2]; sorption from 25% to 55% RH): 6.7% | DVS weight gain as water uptake ([2]; sorption from 25% to 55% RH): ~2.0 mol/mol H2O | DVS hysteresis observation ([2]; sorption/desorption 5-95% RH, listed as Lot II): Hysteresis was observed | solubility ([3]; 5:95 HFIPA/H2O (v/v), aqueous with cosolvent or surfactant or cyclodextrin, 5:95 HFIPA/H2O (v/v), ambient temperature, read-out: Solubility (mg/mL)): < 1 mg/mL | solubility ([3]; 50:50 DMA/H2O (v/v), aqueous with cosolvent or surfactant or cyclodextrin, 50:50 DMA/H2O (v/v), ambient temperature, read-out: Solubility (mg/mL)): < 1 mg/mL | solubility ([3]; 50:50 MeOH/CHCl3 (v/v), organic solvent or mixture, 50:50 MeOH/CHCl3 (v/v), ambient temperature, read-out: Solubility (mg/mL)): 5 to 20 mg/mL (≈ 10 to 40.1 mM) | solubility ([3]; 50:50 MeOH/DCM (v/v), organic solvent or mixture, 50:50 MeOH/DCM (v/v), ambient temperature, read-out: Solubility (mg/mL)): 5 to 20 mg/mL (≈ 10 to 40.1 mM) | solubility ([3]; 50:50 MeOH/H2O (v/v), aqueous with cosolvent or surfactant or cyclodextrin, 50:50 MeOH/H2O (v/v), ambient temperature, read-out: Solubility (mg/mL)): < 1 mg/mL | solubility ([3]; 50:50 TFE/H2O (v/v), aqueous with cosolvent or surfactant or cyclodextrin, 50:50 TFE/H2O (v/v), ambient temperature, read-out: Solubility (mg/mL)): 1 to 4.9 mg/mL (≈ 2.01 to 9.83 mM) | solubility ([3]; 50:50 THF/H2O (v/v), aqueous with cosolvent or surfactant or cyclodextrin, 50:50 THF/H2O (v/v), ambient temperature, read-out: Solubility (mg/mL)): 1 to 4.9 mg/mL (≈ 2.01 to 9.83 mM) | solubility ([3]; 50:50 acetone/water (v/v), aqueous with cosolvent or surfactant or cyclodextrin, 50:50 acetone/water (v/v), ambient temperature, read-out: Solubility (mg/mL)): 1 to 4.9 mg/mL (≈ 2.01 to 9.83 mM) | solubility ([3]; ACN, organic solvent or mixture, ACN, ambient temperature, read-out: Solubility (mg/mL)): < 1 mg/mL | solubility ([3]; AcOH, organic solvent or mixture, AcOH, ambient temperature, read-out: Solubility (mg/mL)): 5 to 20 mg/mL (≈ 10 to 40.1 mM) | solubility ([3]; CHCl3, organic solvent or mixture, CHCl3, ambient temperature, read-out: Solubility (mg/mL)): < 1 mg/mL | solubility ([3]; DCM, organic solvent or mixture, DCM, ambient temperature, read-out: Solubility (mg/mL)): < 1 mg/mL | solubility ([3]; DMA, organic solvent or mixture, DMA, ambient temperature, read-out: Solubility (mg/mL)): 5 to 20 mg/mL (≈ 10 to 40.1 mM) | solubility ([3]; DMF, organic solvent or mixture, DMF, ambient temperature, read-out: Solubility (mg/mL)): 1 to 4.9 mg/mL (≈ 2.01 to 9.83 mM) | solubility ([3]; DMSO, organic solvent or mixture, DMSO, ambient temperature, read-out: Solubility (mg/mL)): 5 to 20 mg/mL (≈ 10 to 40.1 mM) | solubility ([3]; H2O, water, H2O, ambient temperature, read-out: Solubility (mg/mL)): < 1 mg/mL | solubility ([3]; HFIPA, organic solvent or mixture, HFIPA, ambient temperature, read-out: Solubility): 84 mg/mL (≈ 169 mM) | solubility ([3]; HFIPA, organic solvent or mixture, HFIPA, ambient temperature, read-out: Solubility (mg/mL)): 5 to 20 mg/mL (≈ 10 to 40.1 mM) | solubility ([3]; MeOH, organic solvent or mixture, MeOH, ambient temperature, read-out: Solubility (mg/mL)): < 1 mg/mL | solubility ([3]; NMP, organic solvent or mixture, NMP, ambient temperature, read-out: Solubility (mg/mL)): 5 to 20 mg/mL (≈ 10 to 40.1 mM) | solubility ([3]; TFE, organic solvent or mixture, TFE, ambient temperature, read-out: Solubility (mg/mL)): 5 to 20 mg/mL (≈ 10 to 40.1 mM) | solubility ([3]; THF, organic solvent or mixture, THF, ambient temperature, solution almost completely clear after 24 h, read-out: Solubility (mg/mL)): 1 to 4.9 mg/mL (≈ 2.01 to 9.83 mM) | solubility ([3]; THF, organic solvent or mixture, THF, left at ambient temperature overnight, read-out: Solubility): ≥ 1 mg/mL | solubility ([3]; acetone, organic solvent or mixture, Acetone, ambient temperature, read-out: Solubility (mg/mL)): < 1 mg/mL | solubility ([3]; ethylene glycol, organic solvent or mixture, Ethylene glycol, ambient temperature, read-out: Solubility (mg/mL)): < 1 mg/mL | solubility ([3]; organic solvent or mixture, AcOH, DMF, DMSO, 50:50 MeOH/DCM, 50:50 MeOH/CHCl3, NMP, TFE, and 50:50 TFE/H2O, ambient temperature, read-out: Solubility (limited solubility values)): 1 to 20 mg/mL (≈ 2.01 to 40.1 mM)
SMILES: CC(=O)Nc1cc(Oc2cnc3nc(Nc4cc(C(F)(F)F)cn(C)c4=O)n(C)c3c2C#N)ccn1 [Compound 1 Lot II, N-(4-((7-cyano-1-methyl-2-((1-methyl-2-oxo-5-(trifluoromethyl)-1,2-dihydropyridin-3-yl)amino)-1H-imidazo[4,5-b]pyridin-6-yl)oxy)pyridin-2-yl)acetamide]
post-DVS XRPD ([2]; solid recovered after DVS cycle, listed as Lot II): mostly Form B with some peaks attributed to Form O present
